Measured values taken from ChEMBL document CHEMBL1201862, “PubChem BioAssay data set” (2004).
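Where inhibition never reached the appropriate level, the endpoint shown equals the highest concentration tested. Otherwise, values were interpolated linearly from a five-concentration, 48-hour dose response in 96-well plates. GI50: concentration for 50% inhibition of growth.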 The source made the active and inactive calls. Rule as the data show it: active = GI50 up to about 1.1 µM and inactive = higher.

How the values were obtained:
Assay in all cases: NCI anticancer screen, dose series, 48 h
KM-20L2 = system: KM-20L2
HOP-92 = system: HOP-92
SK-MEL-5 = system: SK-MEL-5
UACC-62 = system: UACC-62
ACHN = system: ACHN
UACC-257 = system: UACC-257
HOP-62 = system: HOP-62
SNB-78 = system: SNB-78
IGROV-1 = system: IGROV-1
SF-268 = system: SF-268
SNB-19 = system: SNB-19
U-251 = system: U-251
M14 = system: M14
K562 = system: K562
SF-539 = system: SF-539
LOX IMVI = system: LOX IMVI
OVCAR-5 = system: OVCAR-5
RXF 393 = system: RXF 393
HCT-116 = system: HCT-116
COLO 205 = system: COLO 205
HOP-18 = system: HOP-18
OVCAR-4 = system: OVCAR-4
HCC 2998 = system: HCC 2998
MOLT-4 = system: MOLT-4
OVCAR-3 = system: OVCAR-3
RXF 631 = system: RXF 631
HL-60 = system: HL-60
DMS-114 = system: DMS-114
A549 = system: A549
SN12C = system: SN12C
HT-29 = system: HT-29
SF-295 = system: SF-295
CCRF-CEM = system: CCRF-CEM
LXFL 529 = system: LXFL 529
TK-10 = system: TK-10
NCI-H460 = system: NCI-H460
EKVX = system: EKVX
Malme-3M = system: Malme-3M
CAKI-1 = system: CAKI-1
SK-OV-3 = system: SK-OV-3
KM12 = system: KM12
NCI-H23 = system: NCI-H23
DLD-1 = system: DLD-1
UO-31 = system: UO-31
786-0 = system: 786-0
NCI-H226 = system: NCI-H226
HCT-15 = system: HCT-15
SK-MEL-2 = system: SK-MEL-2
SW-620 = system: SW-620
SK-MEL-28 = system: SK-MEL-28
M19-MEL = system: M19-MEL
OVCAR-8 = system: OVCAR-8
RPMI-8226 = system: RPMI-8226
DMS-273 = system: DMS-273
SR = system: SR
SNB-75 = system: SNB-75
A498 = system: A498
NCI-H522 = system: NCI-H522

Structure (SMILES): Nc1nc(N)c(-c2ccccc2)c(C(=O)Nc2nccs2)n1
- GI50 (KM-20L2): > 100 µM (inactive)
- GI50 (HOP-92): > 100 µM (inactive)
- GI50 (SK-MEL-5): > 100 µM (inactive)
- GI50 (UACC-62): > 100 µM (inactive)
- GI50 (ACHN): > 100 µM (inactive)
- GI50 (UACC-257): > 100 µM (inactive)
- GI50 (HOP-62): > 100 µM (inactive)
- GI50 (SNB-78): > 100 µM (inactive)
- GI50 (IGROV-1): > 100 µM (inactive)
- GI50 (SF-268): > 100 µM (inactive)
- GI50 (SNB-19): > 100 µM (inactive)
- GI50 (U-251): > 100 µM (inactive)
- GI50 (M14): > 100 µM (inactive)
- GI50 (K562): > 100 µM (inactive)
- GI50 (SF-539): > 100 µM (inactive)
- GI50 (LOX IMVI): > 100 µM (inactive)
- GI50 (OVCAR-5): > 100 µM (inactive)
- GI50 (RXF 393): > 100 µM (inactive)
- GI50 (HCT-116): > 100 µM (inactive)
- GI50 (COLO 205): > 100 µM (inactive)
- GI50 (HOP-18): > 100 µM (inactive)
- GI50 (OVCAR-4): > 100 µM (inactive)
- GI50 (HCC 2998): > 100 µM (inactive)
- GI50 (MOLT-4): > 100 µM (inactive)
- GI50 (OVCAR-3): > 100 µM (inactive)
- GI50 (RXF 631): > 100 µM (inactive)
- GI50 (HL-60): > 100 µM (inactive)
- GI50 (DMS-114): > 100 µM (inactive)
- GI50 (A549): > 100 µM (inactive)
- GI50 (SN12C): > 100 µM (inactive)
- GI50 (HT-29): > 100 µM (inactive)
- GI50 (SF-295): > 100 µM (inactive)
- GI50 (CCRF-CEM): > 100 µM (inactive)
- GI50 (LXFL 529): > 100 µM (inactive)
- GI50 (TK-10): > 100 µM (inactive)
- GI50 (NCI-H460): > 100 µM (inactive)
- GI50 (EKVX): > 100 µM (inactive)
- GI50 (Malme-3M): > 100 µM (inactive)
- GI50 (CAKI-1): > 100 µM (inactive)
- GI50 (SK-OV-3): > 100 µM (inactive)
- GI50 (KM12): > 100 µM (inactive)
- GI50 (NCI-H23): > 100 µM (inactive)
- GI50 (DLD-1): > 100 µM (inactive)
- GI50 (UO-31): > 100 µM (inactive)
- GI50 (786-0): > 100 µM (inactive)
- GI50 (NCI-H226): > 100 µM (inactive)
- GI50 (HCT-15): > 100 µM
- GI50 (SK-MEL-2): > 100 µM (inactive)
- GI50 (SW-620): > 100 µM (inactive)
- GI50 (SK-MEL-28): > 100 µM (inactive)
- GI50 (M19-MEL): > 100 µM (inactive)
- GI50 (OVCAR-8): > 100 µM (inactive)

Structure (SMILES): C[C@@H]1CC(=O)C2CCCC1C2=O (some centres not stated)
- GI50 (KM-20L2): > 100 µM (inactive)
- GI50 (HOP-92): > 100 µM (inactive)
- GI50 (SK-MEL-5): > 100 µM (inactive)
- GI50 (UACC-62): > 100 µM (inactive)
- GI50 (ACHN): > 100 µM (inactive)
- GI50 (RPMI-8226): > 100 µM (inactive)
- GI50 (UACC-257): > 100 µM (inactive)
- GI50 (HOP-62): > 100 µM (inactive)
- GI50 (SNB-78): > 100 µM (inactive)
- GI50 (IGROV-1): > 100 µM (inactive)
- GI50 (SF-268): > 100 µM (inactive)
- GI50 (SNB-19): > 100 µM (inactive)
- GI50 (U-251): > 100 µM (inactive)
- GI50 (M14): > 100 µM (inactive)
- GI50 (SF-539): > 100 µM (inactive)
- GI50 (LOX IMVI): > 100 µM (inactive)
- GI50 (OVCAR-5): > 100 µM (inactive)
- GI50 (RXF 393): > 100 µM (inactive)
- GI50 (HCT-116): > 100 µM (inactive)
- GI50 (COLO 205): 45.7 µM (inactive)
- GI50 (DMS-273): > 100 µM (inactive)
- GI50 (HOP-18): > 100 µM (inactive)
- GI50 (OVCAR-4): > 100 µM (inactive)
- GI50 (HCC 2998): > 100 µM (inactive)
- GI50 (MOLT-4): > 100 µM (inactive)
- GI50 (SR): > 100 µM (inactive)
- GI50 (OVCAR-3): > 100 µM (inactive)
- GI50 (RXF 631): > 100 µM (inactive)
- GI50 (HL-60): > 100 µM (inactive)
- GI50 (DMS-114): > 100 µM (inactive)
- GI50 (A549): > 100 µM (inactive)
- GI50 (SN12C): > 100 µM (inactive)
- GI50 (HT-29): > 100 µM (inactive)
- GI50 (SF-295): > 100 µM (inactive)
- GI50 (CCRF-CEM): > 100 µM (inactive)
- GI50 (LXFL 529): > 100 µM (inactive)
- GI50 (TK-10): > 100 µM (inactive)
- GI50 (SNB-75): > 100 µM (inactive)
- GI50 (NCI-H460): > 100 µM (inactive)
- GI50 (EKVX): > 100 µM (inactive)
- GI50 (Malme-3M): > 100 µM (inactive)
- GI50 (CAKI-1): > 100 µM (inactive)
- GI50 (SK-OV-3): > 100 µM (inactive)
- GI50 (KM12): > 100 µM (inactive)
- GI50 (DLD-1): > 100 µM (inactive)
- GI50 (UO-31): > 100 µM (inactive)
- GI50 (786-0): > 100 µM (inactive)
- GI50 (NCI-H226): > 100 µM (inactive)
- GI50 (HCT-15): > 100 µM
- GI50 (A498): > 100 µM (inactive)
- GI50 (SW-620): > 100 µM (inactive)
- GI50 (SK-MEL-28): > 100 µM (inactive)
- GI50 (NCI-H522): > 100 µM (inactive)
- GI50 (M19-MEL): > 100 µM (inactive)
- GI50 (OVCAR-8): > 100 µM (inactive)
